# According to publication PMC6504873, “High-throughput screening of the Plasmodium falciparum cGMP-dependent protein kinase identified a thiazole scaffold which kills erythrocytic and sexual stage parasites” (Scientific Reports, 2019):
# Legend:
# HuPKGIα = molecular target: T1, HuPKGIα (Homo sapiens, UniProt Q13976); assay: Kinase Glo enzymatic assay, human PKG; format: biochemical; conditions: human PKGIα; read-out: Hu PKGIα
# T1 construct: His6; host or cells: Spodoptera frugiperda 21 cells (baculovirus)
# T1 sequence (Q13976 1-671): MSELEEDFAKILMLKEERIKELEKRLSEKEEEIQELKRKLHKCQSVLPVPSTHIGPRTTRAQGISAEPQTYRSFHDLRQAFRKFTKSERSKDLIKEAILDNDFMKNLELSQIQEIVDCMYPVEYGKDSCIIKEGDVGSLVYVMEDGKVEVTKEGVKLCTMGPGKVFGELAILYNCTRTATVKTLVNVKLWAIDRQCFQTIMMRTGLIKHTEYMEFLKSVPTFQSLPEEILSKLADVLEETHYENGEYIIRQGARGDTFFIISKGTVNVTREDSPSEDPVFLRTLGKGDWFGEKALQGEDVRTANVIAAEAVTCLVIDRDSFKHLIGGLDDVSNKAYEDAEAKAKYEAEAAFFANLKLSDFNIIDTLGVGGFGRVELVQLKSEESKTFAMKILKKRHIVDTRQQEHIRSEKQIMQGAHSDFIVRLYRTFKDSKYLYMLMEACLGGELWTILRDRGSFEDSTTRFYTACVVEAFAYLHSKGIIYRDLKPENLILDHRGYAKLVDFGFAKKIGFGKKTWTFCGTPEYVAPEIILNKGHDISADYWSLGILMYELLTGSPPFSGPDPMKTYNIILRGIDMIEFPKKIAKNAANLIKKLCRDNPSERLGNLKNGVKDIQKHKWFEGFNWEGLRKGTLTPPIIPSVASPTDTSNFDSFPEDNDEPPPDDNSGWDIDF
# Method: To identify new PKG inhibitor scaffolds, the 1.7 million GlaxoSmithKline Full Diversity collection was tested at a single final concentration of 10 μM against recombinant full length wild type (WT) PfPKG using a Kinase Glo-based assay (Promega). […] Fresh samples of these primary hits were tested in duplicate against WT PfPKG and also against human PKGIα (HuPKGIα) (Supplementary Fig. 1) at a final concentration of 10 μM (confirmation step).
# The expression vector encoding His6-cGK1α (HuPKGIα) was used to generate recombinant baculoviruses using the Bac-to-Bac system (Invitrogen) following the manufacturer’s protocol. These baculoviruses were used to infect Spodoptera frugiperda 21 cells (1.5 × 10^6/ml) at a multiplicity of infection of 5 and the infected cells were harvested 48 hours post-infection. His6-cGK1α was purified on Cobalt agarose and dialysed into 50 mM Tris-HCl pH 7.5, 0.1 mM EGTA, 150 mM NaCl, 270 mM sucrose, 0.03% Brij-35, 0.1% 2-mercaptoethanol, 1 mM benzamidine, 0.1 mM phenylmethylsulfonyl fluoride (PMSF).
# Initial optimization of the PKG assay was performed manually in 384-well plates and analysed with GraFit 7. The buffer for all assays was 25 mM HEPES pH 7.3 (GIBCO), 10 mM MgCl2 (Sigma), 2 mM DTT (Sigma), 0.01 mM cGMP (Sigma), 0.1 mg/ml BSA (Ambion). Enzymatic activity was tested using a luminescence-based kit (Promega KinaseGlo). Addition of the first reagent depletes the unused ATP and addition of the second reagent converts ADP (product of the kinase reaction) to ATP, which is then measured through a luciferin/luciferase reaction. The amount of luminescence is directly proportional to ATP turnover by the kinase. The kit was chosen because it can be miniaturized to small volumes (i.e. 4 µl) in 1536-well plates, for use in HTS.
# We used PKA peptide substrate (SCP0212, Sigma-Aldrich) for WT and TQ PfPKG, dissolved in milliQ water at a final concentration of 5 mM, and Long S6 peptide substrate (produced at the University of Dundee, sequence […]) for HuPKGIα, dissolved in water at a final concentration of 30 mM.
# We calculated the Michaelis-Menten (Km) constant for ATP and peptide substrate (PKA or Long S6) for all enzymes using GraphPad Prism (Supplementary Figs 2 and 3 and Supplementary Table 3). In order to identify different types of PKG inhibitors, including ATP competitive or non-competitive inhibitors, as well as inhibitors that bind to the peptide substrate pocket, we performed all assays using ATP and peptide substrate at a concentration equal to the Km. We also determined enzyme activity by calculating ATP turnover (Kcat) over the Km (Supplementary Table 3). The Kcat was calculated as (Vmax*slope)/[E] where Vmax is the maximum velocity and [E] is the concentration of the enzyme.
# The plates containing the compounds were prepared at GSK in Upper Providence or Stevenage. Compounds were tested at a single final concentration of 10 µM or in a dose response with a range of concentrations starting from 100 μM to 1.6 nM (1 in 3 serial dilutions). Compounds were dispensed in the plates at the required concentration in a 40 nl volume. All plates (1536-well white Greiner) contained 40 nl of DMSO in lanes 11 and 12 (control 1, 100% enzyme activity) and were empty in lanes 35 and 36 (control 2, 0% enzyme activity). The plates were removed from −20 °C 1 hour before starting the assay. Using a Multidrop Combi dispenser (Thermo Scientific), 2 µl of the buffer containing ATP and the substrate were added to all wells then 2 µl of buffer only were added to column 35 and 36. Finally 2 µl of buffer containing the enzyme were dispensed in all the plate wells except for lanes 35 and 36. After 1 hour incubation at 21 °C 2 µl of ADP-Glo reagent (Promega KinaseGlo kit), previously supplemented with 0.02% CHAPS (Sigma), were added to all wells.
# WT PfPKG = molecular target: T2, WT PfPKG (Plasmodium falciparum, UniProt Q8I719); parameters: species or system P. falciparum; conditions: for LE: ligand efficiency; for LLE: lipophilic ligand efficiency
# T2 construct: recombinant full length wild type (WT) PfPKG; His6 (N); host or cells: E. coli BL21
# T2 sequence (Q8I719 whole entry): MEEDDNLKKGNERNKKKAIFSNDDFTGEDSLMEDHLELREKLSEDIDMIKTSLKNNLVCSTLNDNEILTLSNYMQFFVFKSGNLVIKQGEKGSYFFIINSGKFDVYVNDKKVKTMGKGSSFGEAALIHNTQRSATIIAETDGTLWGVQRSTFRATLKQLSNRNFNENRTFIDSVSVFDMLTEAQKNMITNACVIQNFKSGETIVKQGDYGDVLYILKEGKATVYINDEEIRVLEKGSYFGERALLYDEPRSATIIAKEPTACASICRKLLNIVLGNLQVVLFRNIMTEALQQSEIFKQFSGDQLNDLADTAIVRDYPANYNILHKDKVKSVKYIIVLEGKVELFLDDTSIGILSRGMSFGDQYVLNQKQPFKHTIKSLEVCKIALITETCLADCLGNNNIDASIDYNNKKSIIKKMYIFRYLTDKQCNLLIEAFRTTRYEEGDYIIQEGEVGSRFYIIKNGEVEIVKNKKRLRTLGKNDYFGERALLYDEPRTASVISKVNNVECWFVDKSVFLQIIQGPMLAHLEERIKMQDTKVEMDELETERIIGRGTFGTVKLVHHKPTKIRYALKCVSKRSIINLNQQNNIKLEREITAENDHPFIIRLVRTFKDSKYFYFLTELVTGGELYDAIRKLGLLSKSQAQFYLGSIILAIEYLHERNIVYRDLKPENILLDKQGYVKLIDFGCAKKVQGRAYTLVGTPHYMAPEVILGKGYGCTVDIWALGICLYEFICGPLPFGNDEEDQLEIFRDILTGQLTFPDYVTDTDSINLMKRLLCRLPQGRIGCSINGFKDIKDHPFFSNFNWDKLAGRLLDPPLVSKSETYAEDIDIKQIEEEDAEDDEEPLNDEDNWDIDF
# Text: A scoring system was developed to further prioritize interesting compounds. […] Three points were given to compounds that inhibit HuPKGIα at least 3 orders of magnitude less than WT PfPKG. […] We also considered how well the compounds bind to the target by taking into account two physicochemical properties: ligand efficiency (LE, 1.37 x pIC50/number heavy atoms) is a characterization of a compound’s efficiency on a per-heavy-atom basis[51] and lipophilic ligand efficiency (LLE, pIC50 – clogP) is a parameter used in drug design which links potency and lipophilicity in an attempt to estimate drug-likeness[52]. The ClogP coefficient measures lipophilicity. Values of LE ≥ 0.3 and LLE ≥ 5 are typically accepted as good starting points for optimizations efforts.
compound,measurement,setting,value
CCn1cc(-c2ccncn2)c(-c2cccc(NS(=O)(=O)c3cc(F)ccc3F)c2)n1 [Compound 2],IC50,HuPKGIα,> 100 µM
same,LE,WT PfPKG,0.33
same,LLE,WT PfPKG,4.2
Cc1ccc(S(C)(=O)=O)cc1Nc1nccc(-c2sc(CC(N)=O)nc2-c2ccccc2)n1 [Compound 3],IC50,HuPKGIα,> 100 µM
same,LE,WT PfPKG,0.33
same,LLE,WT PfPKG,6.0
CC(C)(CN)c1cc(-c2ccc(Cl)c(O)c2)c(-c2ccncc2)o1 [Compound 4],IC50,HuPKGIα,15 µM
same,LE,WT PfPKG,0.5
same,LLE,WT PfPKG,5.5
CCn1c(-c2nonc2N)nc2c(-c3ccccc3)ncc(CN(C)C3CCN(C)CC3)c21 [Compound 5],IC50,HuPKGIα,40.3 µM
same,LE,WT PfPKG,0.3
same,LLE,WT PfPKG,4.3
CNS(=O)(=O)c1cccc(Nc2ccnc(Nc3cccc(S(=O)(=O)NC)c3)n2)c1 [Compound 6],IC50,HuPKGIα,44.2 µM
same,LE,WT PfPKG,0.33
same,LLE,WT PfPKG,4.5
COc1ccc(-c2c(-c3cccc(C(=O)N4CCN(C)CC4)c3)oc3ncnc(N)c23)cc1 [Compound 7],IC50,HuPKGIα,> 100 µM
same,LE,WT PfPKG,0.33
same,LLE,WT PfPKG,5.4
COc1ccc(CCNC(=O)CSc2ncnc3[nH]ncc23)cc1OC [Compound 8],IC50,HuPKGIα,> 100 µM
same,LE,WT PfPKG,0.37
same,LLE,WT PfPKG,5.5
COc1cccc(Nc2nc(-c3ccncc3)cc(N3CCN(C)CC3)n2)c1 [Compound 9],IC50,HuPKGIα,> 100 µM
same,LE,WT PfPKG,0.37
same,LLE,WT PfPKG,3.9
COc1cc(CS(C)(=O)=O)ccc1Nc1nc(Nc2cc(F)ccc2C(N)=O)c2cc[nH]c2n1 [Compound 10],IC50,HuPKGIα,> 100 µM
same,LE,WT PfPKG,0.3
same,LLE,WT PfPKG,4.4
O=C(N[C@@H](CO)c1ccccc1)c1ccc2cncc(-c3cn[nH]c3)c2n1 [Compound 11],IC50,HuPKGIα,6.1 µM
same,LE,WT PfPKG,0.36
same,LLE,WT PfPKG,4.9
NCCNCc1ccc(-c2cc3ccncc3cc2OC2CCNCC2)s1 [Compound 12],IC50,HuPKGIα,13.8 µM
same,LE,WT PfPKG,0.33
same,LLE,WT PfPKG,4.7
CNCCOc1cnc(-c2ccoc2C)c(-c2ccc3cnccc3c2)c1 [Compound 13],IC50,HuPKGIα,7.4 µM
same,LE,WT PfPKG,0.4
same,LLE,WT PfPKG,5.1
O=C(c1cccc(OCc2cccnc2)c1)N1CCc2sccc2C1CN1CCCCC1 (stereo not drawn) [Compound 14],IC50,HuPKGIα,> 100 µM
same,LE,WT PfPKG,0.32
same,LLE,WT PfPKG,2.9
Nc1ccc2c(-c3ccncc3)c(-c3ccc(Cl)c(O)c3)[nH]c2n1 [Compound 15],IC50,HuPKGIα,45.2 µM
same,LE,WT PfPKG,0.44
same,LLE,WT PfPKG,4.9
Nc1nc(Nc2cccc3cnccc23)nn1C(=O)C1CCCCC1 [Compound 16],IC50,HuPKGIα,22.4 µM
same,LE,WT PfPKG,0.4
same,LLE,WT PfPKG,3.6
